Data from US7981893B2, “Heteroaryl compounds, compositions thereof, and methods of treatment therewith” (Signal Pharmaceuticals, LLC, priority 2006, dated 2011).

Structure (SMILES) | melting point
O=c1[nH]c2ncc(-c3ccc(O)cc3)nc2n1CCc1ccccc1 [Compound 121, 6-(4-Hydroxyphenyl)-1-phenethyl-1H-imidazo[4,5-b]pyrazin-2(3H)-one] | 283 to 284 °C
O=c1[nH]c2ncc(-c3ccc(O)nc3)nc2n1CC1CCCCC1 [Compound 135, 1-(Cyclohexylmethyl)-6-(6-hydroxypyridin-3-yl)-1H-imidazo[4,5-b]pyrazin-2(3H)-one] | > 400 °C
O=c1[nH]c2ncc(-c3ccc(-c4nnc[nH]4)cc3)nc2n1CCN1CCOCC1 [Compound 193, 6-(4-(4H-1,2,4-Triazol-3-yl)phenyl)-1-(2-morpholinoethyl)-1H-imidazo[4,5-b]pyrazin-2(3H)-one] | 295 to 297 °C
Cc1cc(O)ccc1-c1cnc2[nH]c(=O)n(CC3CCCCC3)c2n1 [Compound 115, 1-(Cyclohexylmethyl)-6-(4-hydroxy-2-methylphenyl)-1H-imidazo[4,5-b]pyrazin-2(3H)-one] | 212 to 214 °C
NC(=O)c1ccc(-c2cnc3[nH]c(=O)n(CC4CCCCC4)c3n2)cc1 [Compound 96, 4-(3-(Cyclohexylmethyl)-2-oxo-2,3-dihydro-1H-imidazo[4,5-b]pyrazin-5-yl)benzamide] | 293 to 295 °C
O=C1Cc2cc(-c3cnc4[nH]c(=O)n(CC5CCCCC5)c4n3)ccc2N1 [Compound 129, 1-(Cyclohexylmethyl)-6-(2-oxoindolin-5-yl)-1H-imidazo[4,5-b]pyrazin-2(3H)-one] | 313 to 316 °C
O=c1[nH]c2ncc(-c3ccc(-c4n[nH]c(CN5CCOCC5)n4)cc3)nc2n1CC1CCOCC1 [Compound 175, 6-(4-(5-(Morpholinomethyl)-1H-1,2,4-triazol-3-yl)phenyl)-1-((tetrahydro-2H-pyran-4-yl)methyl)-1H-imidazo[4,5-b]pyrazin-2(3H)-one] | 281 to 283 °C
O=c1[nH]c2ncc(-c3ccc(O)cc3)nc2n1CCC1CCOCC1 [Compound 120, 6-(4-Hydroxyphenyl)-1-(2-(tetrahydro-2H-pyran-4-yl)ethyl)-1H-imidazo[4,5-b]pyrazin-2(3H)-one] | 276 to 277 °C
O=c1[nH]c2ncc(-c3ccccc3)nc2n1CC1CCCCC1 [Compound 124, 1-(Cyclohexylmethyl)-6-phenyl-1H-imidazo[4,5-b]pyrazin-2(3H)-one] | 253 to 255 °C
O=c1[nH]c2ncc(-c3ccc(F)nc3)nc2n1CC1CCOCC1 [Compound 231, 6-(6-Fluoropyridin-3-yl)-1-((tetrahydro-2H-pyran-4-yl)methyl)-1H-imidazo[4,5-b]pyrazin-2(3H)-one] | 220 to 222 °C
COC(=O)c1ccc(-c2cnc3[nH]c(=O)n(CC4CCCCC4)c3n2)cc1 [Compound 97, Methyl 4-(3-(cyclohexylmethyl)-2-oxo-2,3-dihydro-1H-imidazo[4,5-b]pyrazin-5-yl)benzoate] | 253 to 255 °C
COCCCn1c(=O)[nH]c2ncc(-c3ccc(O)cc3)nc21 [Compound 118, 6-(4-Hydroxyphenyl)-1-(3-methoxypropyl)-1H-imidazo[4,5-b]pyrazin-2(3H)-one] | 208 to 210 °C
O=C1Cc2ccc(-c3cnc4[nH]c(=O)n(CC5CCCCC5)c4n3)cc2N1 [Compound 140, 1-(Cyclohexylmethyl)-6-(2-oxoindolin-6-yl)-1H-imidazo[4,5-b]pyrazin-2(3H)-one] | 334 to 336 °C
O=c1[nH]c2ncc(-c3ccc(O)cc3)nc2n1C1CCCCC1 [Compound 95, 1-Cyclohexyl-6-(4-hydroxyphenyl)-1H-imidazo[4,5-b]pyrazin-2(3H)-one] | 318 to 320 °C
O=c1[nH]c2ncc(-c3ccc4[nH]ccc4c3)nc2n1CC1CCOCC1 [Compound 146, 6-(1H-Indol-5-yl)-1-((tetrahydro-2H-pyran-4-yl)methyl)-1H-imidazo[4,5-b]pyrazin-2(3H)-one] | 305 to 308 °C
O=C1CCCN1CCn1c(=O)[nH]c2ncc(-c3ccc(-c4nc[nH]n4)cc3)nc21 [Compound 203, 6-(4-(1H-1,2,4-Triazol-3-yl)phenyl)-1-(2-(2-oxopyrrolidin-1-yl)ethyl)-1H-imidazo[4,5-b]pyrazin-2(3H)-one] | 300 to 301 °C
O=c1[nH]c2ncc(-c3ccc4[nH]ncc4c3)nc2n1CC1CCCCC1 [Compound 130, 1-(Cyclohexylmethyl)-6-(1H-indazol-5-yl)-1H-imidazo[4,5-b]pyrazin-2(3H)-one] | 311 to 313 °C
O=c1[nH]c2ncc(-c3ccnc(O)c3)nc2n1CC1CCCCC1 [Compound 154, 1-(Cyclohexylmethyl)-6-(2-hydroxypyridin-4-yl)-1H-imidazo[4,5-b]pyrazin-2(3H)-one] | 311 to 313 °C
COc1cc(-c2cnc3[nH]c(=O)n(CC4CCCCC4)c3n2)ccn1 [Compound 136, 1-(Cyclohexylmethyl)-6-(2-methoxypyridin-4-yl)-1H-imidazo[4,5-b]pyrazin-2(3H)-one] | 295 to 297 °C
O=c1[nH]c2ncc(-c3ccc4[nH]ccc4c3)nc2n1CC1CCCCC1 [Compound 103, 1-(Cyclohexylmethyl)-6-(1H-indol-5-yl)-1H-imidazo[4,5-b]pyrazin-2(3H)-one] | 343 to 346 °C

Structure (SMILES) | melting point
CC(C)NC(=O)c1ccc(-c2cnc3[nH]c(=O)n(CC4CCCCC4)c3n2)cc1 [Compound 104, 4-(3-(Cyclohexylmethyl)-2-oxo-2,3-dihydro-1H-imidazo[4,5-b]pyrazin-5-yl)-N-isopropylbenzamide] | 264 to 268 °C
O=c1[nH]c2ncc(-c3ccncc3)nc2n1CC1CCCCC1 [Compound 98, 1-(Cyclohexylmethyl)-6-(pyridin-4-yl)-1H-imidazo[4,5-b]pyrazin-2(3H)-one] | 267 to 269 °C
O=c1[nH]c2ncc(-c3ccc(-c4ncc[nH]4)cc3)nc2n1CCC1CCOCC1 [Compound 216, 6-(4-(1H-imidazol-2-yl)phenyl)-1-(2-(tetrahydro-2H-pyran-4-yl)ethyl)-1H-imidazo[4,5-b]pyrazin-2(3H)-one] | 293 to 295 °C
NC(=O)c1ccc(-c2cnc3[nH]c(=O)n(CC4CCOCC4)c3n2)cc1 [Compound 143, 4-(2-oxo-3-((Tetrahydro-2H-pyran-4-yl)methyl)-2,3-dihydro-1H-imidazo[4,5-b]pyrazin-5-yl)benzamide] | 273 to 275 °C
O=c1[nH]c2ncc(-c3cccnc3)nc2n1CC1CCCCC1 [Compound 101, 1-(Cyclohexylmethyl)-6-(pyridin-3-yl)-1H-imidazo[4,5-b]pyrazin-2(3H)-one] | 205 °C
CC(c1ccccc1)n1c(=O)[nH]c2ncc(-c3ccnc4ccccc34)nc21 (stereo not drawn) [Compound 70, 1-(1-phenylethyl)-6-(quinolin-4-yl)-1H-imidazo[4,5-b]pyrazin-2(3H)-one] | 252 to 254 °C
CC(C)(O)c1ccc(-c2cnc3[nH]c(=O)n(CC4CCCCC4)c3n2)cn1 [Compound 240, 1-(cyclohexylmethyl)-6-(6-(2-hydroxypropan-2-yl)pyridin-3-yl)-1H-imidazo[4,5-b]pyrazin-2(3H)-one] | > 250 °C
C[C@H](c1ccccc1)n1c(=O)[nH]c2ncc(-c3ccc(-c4nc[nH]n4)cc3)nc21 [Compound 249, (R)-6-(4-(1H-1,2,4-triazol-3-yl)phenyl)-1-(1-phenylethyl)-1H-imidazo[4,5-b]pyrazin-2(3H)-one] | 258 to 260 °C
NC(=O)c1ccc(-c2cnc3[nH]c(=O)n(CCC4CCOCC4)c3n2)cc1 [Compound 149, 4-(2-oxo-3-(2-(Tetrahydro-2H-pyran-4-yl)ethyl)-2,3-dihydro-1H-imidazo[4,5-b]pyrazin-5-yl)benzamide] | 233 to 236 °C
O=c1[nH]c2ncc(-c3ccc(-n4cccn4)cc3)nc2n1CC1CCOCC1 [Compound 192, 6-(4-(1H-Pyrazol-1-yl)phenyl)-1-((tetrahydro-2H-pyran-4-yl)methyl)-1H-imidazo[4,5-b]pyrazin-2(3H)-one] | 294 to 296 °C
CC(C)c1nc(-c2ccc(-c3cnc4[nH]c(=O)n(CC5CCOCC5)c4n3)cc2)n[nH]1 [Compound 186, 6-(4-(5-Isopropyl-1H-1,2,4-triazol-3-yl)phenyl)-1-((tetrahydro-2H-pyran-4-yl)methyl)-1H-imidazo[4,5-b]pyrazin-2(3H)-one] | 305 to 308 °C
O=c1[nH]c2ncc(-c3ccc(-c4cn[nH]c4)cc3)nc2n1CC1CCCCC1 [Compound 161, 6-(4-(1H-Pyrazol-4-yl)phenyl)-1-(cyclohexylmethyl)-1H-imidazo[4,5-b]pyrazin-2(3H)-one] | 305 to 307 °C
Nc1ncc(-c2cnc3[nH]c(=O)n(CC4CCCCC4)c3n2)cn1 [Compound 236, 6-(2-aminopyrimidin-5-yl)-1-(cyclohexylmethyl)-1H-imidazo[4,5-b]pyrazin-2(3H)-one] | > 250 °C
CN1CCC(Cn2c(=O)[nH]c3ncc(-c4ccc(O)cc4)nc32)CC1 [Compound 109, 6-(4-Hydroxyphenyl)-1-((1-methylpiperidin-4-yl)methyl)-1H-imidazo[4,5-b]pyrazin-2(3H)-one] | 292 to 294 °C
COCCn1c(=O)[nH]c2ncc(-c3ccc(O)cc3)nc21 [Compound 117, 6-(4-Hydroxyphenyl)-1-(2-methoxyethyl)-1H-imidazo[4,5-b]pyrazin-2(3H)-one] | 236 to 237 °C
O=c1[nH]c2ncc(-c3ccc(O)cc3)nc2n1CC1CCNCC1 [Compound 133, 6-(4-Hydroxyphenyl)-1-(piperidin-4-ylmethyl)-1H-imidazo[4,5-b]pyrazin-2(3H)-one] | 300 °C (dec.)
O=c1[nH]c2ncc(-c3ccc(-c4cc[nH]n4)cc3)nc2n1CC1CCCCC1 [Compound 160, 6-(4-(1H-Pyrazol-3-yl)phenyl)-1-(cyclohexylmethyl)-1H-imidazo[4,5-b]pyrazin-2(3H)-one] | 292 to 294 °C
O=c1[nH]c2ncc(-c3cn[nH]c3)nc2n1CC1CCCCC1 [Compound 126, 1-(Cyclohexylmethyl)-6-(1H-pyrazol-4-yl)-1H-imidazo[4,5-b]pyrazin-2(3H)-one] | 246 to 248 °C
O=c1[nH]c2ncc(-c3cnc4[nH]cnc4c3)nc2n1CC1CCOCC1 [Compound 190, 6-(3H-imidazo[4,5-b]pyridin-6-yl)-1-((tetrahydro-2H-pyran-4-yl)methyl)-1H-imidazo[4,5-b]pyrazin-2(3H)-one] | 367 to 370 °C
